Literature values in patent US20240390265A1, “FORMULATIONS FOR TRANSDERMAL ADMINISTRATION OF ACTIVE AGENTS” (DYVE BIOSCIENCES, INC., priority 2022, published 2024).

Legend:
BRAF [1] = target: T1, BRAF (Homo sapiens, UniProt P15056); conditions: read-out: IC50 (B-Raf inhibitor)
Target sequence in this assay (P15056 2-766 limits assumed): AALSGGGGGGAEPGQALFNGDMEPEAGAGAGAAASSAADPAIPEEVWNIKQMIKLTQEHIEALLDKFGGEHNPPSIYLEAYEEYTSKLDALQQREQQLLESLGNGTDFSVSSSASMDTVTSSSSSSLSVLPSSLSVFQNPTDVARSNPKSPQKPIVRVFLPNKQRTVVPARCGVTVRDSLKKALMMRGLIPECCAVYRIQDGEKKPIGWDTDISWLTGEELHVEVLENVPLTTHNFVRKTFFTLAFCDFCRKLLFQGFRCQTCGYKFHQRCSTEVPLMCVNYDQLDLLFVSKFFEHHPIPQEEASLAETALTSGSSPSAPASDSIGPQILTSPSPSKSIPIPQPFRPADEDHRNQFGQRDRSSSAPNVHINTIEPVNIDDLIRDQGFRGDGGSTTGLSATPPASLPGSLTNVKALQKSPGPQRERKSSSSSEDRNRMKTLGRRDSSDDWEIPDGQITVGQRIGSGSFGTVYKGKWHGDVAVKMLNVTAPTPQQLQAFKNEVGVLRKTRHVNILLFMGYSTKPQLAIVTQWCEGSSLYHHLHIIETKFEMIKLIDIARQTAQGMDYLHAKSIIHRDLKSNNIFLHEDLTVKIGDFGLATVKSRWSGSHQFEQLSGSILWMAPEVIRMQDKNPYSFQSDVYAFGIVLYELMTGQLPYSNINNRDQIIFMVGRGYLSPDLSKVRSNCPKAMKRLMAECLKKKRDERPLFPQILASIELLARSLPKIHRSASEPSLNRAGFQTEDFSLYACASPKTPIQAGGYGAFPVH

[2] = test system: KRAS G12D mutant tumor cells
[3] = test system: tumor models harboring KRAS G12D mutations
BRAF [4] = target: T1, BRAF
Target sequence in this assay (P15056 whole entry): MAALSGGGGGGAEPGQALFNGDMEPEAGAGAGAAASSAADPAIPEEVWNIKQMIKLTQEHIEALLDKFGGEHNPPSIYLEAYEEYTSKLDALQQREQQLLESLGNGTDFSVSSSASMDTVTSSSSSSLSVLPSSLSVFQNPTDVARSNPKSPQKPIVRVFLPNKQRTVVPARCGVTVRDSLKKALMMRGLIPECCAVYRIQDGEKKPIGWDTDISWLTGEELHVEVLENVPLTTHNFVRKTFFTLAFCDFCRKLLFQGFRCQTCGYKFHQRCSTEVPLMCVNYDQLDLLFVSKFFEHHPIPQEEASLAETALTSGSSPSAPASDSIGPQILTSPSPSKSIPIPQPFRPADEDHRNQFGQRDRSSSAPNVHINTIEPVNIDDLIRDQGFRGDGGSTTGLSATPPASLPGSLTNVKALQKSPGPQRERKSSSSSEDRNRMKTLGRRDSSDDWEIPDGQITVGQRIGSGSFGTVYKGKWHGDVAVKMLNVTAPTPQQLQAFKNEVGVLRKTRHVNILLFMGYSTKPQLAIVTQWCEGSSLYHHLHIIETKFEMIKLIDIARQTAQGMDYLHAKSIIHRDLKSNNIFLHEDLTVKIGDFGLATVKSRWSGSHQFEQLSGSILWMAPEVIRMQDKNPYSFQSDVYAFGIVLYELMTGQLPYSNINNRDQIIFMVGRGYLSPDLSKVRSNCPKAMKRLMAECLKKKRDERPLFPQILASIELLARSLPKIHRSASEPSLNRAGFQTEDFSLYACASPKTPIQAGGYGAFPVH

CRAF = CRAF (Homo sapiens, UniProt P04049)
[5] = test system: panel of 456 human kinases
[6] = test system: cell line and primary human tumor derived xenograft models; conditions: at well-tolerated doses
[7] = in vivo

Sequence of CRAF (P04049 whole entry): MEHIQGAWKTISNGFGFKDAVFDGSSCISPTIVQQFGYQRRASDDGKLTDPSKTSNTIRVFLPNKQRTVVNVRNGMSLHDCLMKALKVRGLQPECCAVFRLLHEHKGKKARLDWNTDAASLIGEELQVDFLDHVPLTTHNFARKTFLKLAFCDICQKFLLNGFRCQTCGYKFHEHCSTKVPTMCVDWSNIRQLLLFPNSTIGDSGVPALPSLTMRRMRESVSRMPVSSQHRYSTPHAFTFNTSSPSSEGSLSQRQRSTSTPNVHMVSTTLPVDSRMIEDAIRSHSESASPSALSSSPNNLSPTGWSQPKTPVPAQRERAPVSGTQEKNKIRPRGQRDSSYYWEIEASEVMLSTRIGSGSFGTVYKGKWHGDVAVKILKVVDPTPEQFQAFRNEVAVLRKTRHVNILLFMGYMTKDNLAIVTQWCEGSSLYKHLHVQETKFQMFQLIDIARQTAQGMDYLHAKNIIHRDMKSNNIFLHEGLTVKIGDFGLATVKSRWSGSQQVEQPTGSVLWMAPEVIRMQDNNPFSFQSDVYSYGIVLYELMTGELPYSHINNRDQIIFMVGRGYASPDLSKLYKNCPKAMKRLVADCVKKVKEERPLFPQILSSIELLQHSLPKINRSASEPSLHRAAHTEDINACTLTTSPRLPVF

In the case of `Cc1ccc2c(Nc3cccc(OC(F)(F)F)c3)nccc2c1Nc1ncccc1-c1ncnc2nc[nH]c12` [LUT014, 6-methyl-5-N-[3-(7H-purin-6-yl)pyridin-2-yl]-1-N-[3-(trifluoromethoxy)phenyl]isoquinoline-1,5-diamine], the IC50 (BRAF [1]) is listed as 11.7 nM.
For `C#Cc1c(F)ccc2cc(O)cc(-c3ncc4c(N5CC6CCC(C5)N6)nc(OC[C@@]56CCCN5C[C@H](F)C6)nc4c3F)c12` [MRTX1133], the “activity in cellular assays” value [2] is given as “single digit nanomolar” and the “in vivo efficacy in tumor models harboring KRAS G12D mutations” value [3] is given as “marked in vivo efficacy”.
For `Cc1ccc(NC(=O)c2ccnc(C(F)(F)F)c2)cc1-c1cc(OCCO)nc(N2CCOCC2)c1` [Naporafenib], the “concentrations inhibiting BRAF kinase activity” value (BRAF [4]) is given as “picomolar”, the “concentrations inhibiting CRAF kinase activity” value (CRAF) is given as “picomolar” and the “selectivity against a panel of 456 human kinases” value [5] is given as “high degree of selectivity”. For the same compound, the “effect on tumors in xenograft models” value [6] was “tumor regression” and the oral bioavailability [7] was “orally bioavailable”.
